Series [1] relates to C. albicans & C. tropicalis. Kind of series: In vitro antifungal MIC in EMEM (pH 7.0), C. albicans & C. tropicalis. Type of series: cell-based. The note with it: 9 strains; for MIC: 48/72 hr, read-out: Geometric means MICs, 48/72 hr. The method, then:
(§1) Compounds A and B of the invention were tested in standard antifungal assays and data from these tests appear in the Table 13 just below.
(§2) In vitro activity of compounds
(§3) A and B and Albofungin against various fungi
(§4) Geometric means MICs μg/ml, 48/72 hr)
EMEM means Eagle's minimum essential medium, pH 7.0.

The subject of a further series is Aspergillus. Kind of series: In vitro antifungal MIC in SDB (pH 5.7), Aspergillus. Type of series: cell-based. The note with it: 3 strains; for MIC: 48/72 hr, read-out: Geometric means MICs, 48/72 hr. The method, then:
as §1, §2, §3, §4
(§5) SDB means Sabourand dextrose broth, pH 5.7;

Another series relates to Dermatophytes. Kind of series: In vitro antifungal MIC in SDB (pH 5.7), dermatophytes. Type of series: cell-based. The note with it: 5 strains; for MIC: 48/72 hr, read-out: Geometric means MICs, 48/72 hr. As to the method: as §1, §2, §3, §4, §5
Another series in a line: In vivo LD50, iv. The note with it: mpk means mg. per kg., range for compounds A and B, printed with "about".
Series [2] has as its system C. albicans & C. tropicalis. Kind of series: In vitro antifungal MIC in SDB (pH 5.7), C. albicans & C. tropicalis. Format: cell-based. Conditions: 8 strains; for MIC: 48/72 hr, read-out: Geometric means MICs, 48/72 hr. The method, then: as §1, §2, §3, §4, §5
In the next series the test system is Other Candida. Kind of series: In vitro antifungal MIC in SDB (pH 5.7), other Candida. Format: cell-based. The note with it: 6 strains; for MIC: 48/72 hr, read-out: Geometric means MICs, 48/72 hr. The method, then:
as §1, §2, §3, §4, §5

Series [3] concerns various yeasts and dermatophytes. Kind of series: Antifungal MIC against various yeasts and dermatophytes (summary statement). Type of series: cell-based. The note with it: read-out: MIC values. As to the method: as §1

Values after ≈ are worked out from the molar mass of the structure shown.

For the compound `CCC(C)c1cc2c(Cl)c3c(c(O)c2c(=O)n1N)-c1c(O)c2c(c4c1C(C3)OCO4)OC1C(OC)C=CC(O)C1C2=O` (stereo not drawn) [Compound A], the MIC was below 2.16 µg/mL in series [1]; 0.0248 µg/mL (≈ 0.0415 µM) in the series with Aspergillus; 0.00764 µg/mL (≈ 0.0128 µM) in the series with Dermatophytes; below 0.000386 µg/mL in series [2]; below 0.00128 µg/mL with Other Candida; at most 0.000386 µg/mL in series [3]. In the series “In vivo LD50, iv”, this compound gave an LD50 of 1 to 25 mg/kg.
On to `CCC(C)c1cc2cc3c(c(O)c2c(=O)n1C)-c1c(O)c2c(c(OC)c1CC3)O[C@H]1[C@@H](C2=O)[C@@H](O)C=C[C@H]1O` (stereo partly drawn) [Compound B], for which the MIC in series [1] is below 0.135 µg/mL; in the series with Aspergillus it was 0.794 µg/mL (≈ 1.49 µM); with Dermatophytes, 0.144 µg/mL (≈ 0.269 µM); in series [2], 0.017 µg/mL (≈ 0.0319 µM); with Other Candida, 0.0312 µg/mL (≈ 0.0585 µM). In addition, the LD50 in “In vivo LD50, iv” lay in the range of 1 to 25 mg/kg.
Regarding Albofungin [reference compound], the “Geometric means MICs, 48/72 hr” value was below 0.0182 µg/mL in series [1]; 0.125 µg/mL in the series on Aspergillus; 0.0359 µg/mL in the series on Dermatophytes; below 0.00055 µg/mL in series [2]; below 0.00099 µg/mL in the series with Other Candida.

Usually LD50 stands for the dose at which mortality reaches 50%. A low value points to a more toxic substance.
